Results from patent publication US20260130933A1, “PHARMACEUTICAL COMPOSITION FOR PREVENTION OR TREATMENT OF NEPHROPATHY AND/OR DIABETES MELLITUS, COMPRISING ENAVOGLIFLOZIN” (DAEWOONG PHARMACEUTICAL CO., LTD., priority 2022, published 2026).

Assay: Example 4: subgroup of patients with proteinuria (baseline UACR of 30 to 3500 g/kg) of Examples 1 to 3, percent change in UACR at week 24
Format: in vivo, human
Settings: for UACR decrease at week 24 compared to baseline: proteinuria subgroup
Text: Among the patient groups that received the test drugs and the control drug of Examples 1 to 3, a group of patients with proteinuria (baseline UACR of 30 to 3500 g/kg) was additionally analyzed.
Among the patients in Example 1, a subgroup with baseline UACR of 30 to 3500 g/kg was classified as a group of patients with proteinuria.
Among the patients in Example 2, a subgroup with the baseline UACR of 30 to 3500 g/kg was classified as a group of patients with proteinuria.
Similarly, among the patients in Example 3, a subgroup with the baseline UACR of 30 to 3500 g/kg was classified as a group of patients with proteinuria.

[1] = week 24, Example 2 (with metformin), per-protocol set, UACR 30-3500 g/kg at baseline
[2] = week 24, Example 3 (with metformin and gemigliptin), per-protocol set, UACR 30-3500 g/kg baseline
[3] = week 24, Example 1 (monotherapy), full analysis set, UACR 30-3500 g/kg at baseline

Row | SMILES | Percent change from baseline in UACR, Mean [1] [%] | Percent change from baseline in UACR, Median [1] [%] | UACR, Mean [1] [g/kg] | UACR, Median [1] [g/kg] | Percent change from baseline in UACR, Mean [2] [%] | Percent change from baseline in UACR, Median [2] [%] | UACR, Mean [2] [g/kg] | UACR, Median [2] [g/kg] | UACR decrease at week 24 compared to baseline (dual combination therapy with metformin) [%] | UACR decrease at week 24 compared to baseline (enavogliflozin administered alone) [%] | UACR decrease at week 24 compared to baseline (triple combination therapy with metformin and gemigliptin) [%] | UACR change, decrease compared to the dapagliflozin-administered patient group (two studies (Examples 2 and 3) combined) [%] | Percent change from baseline in UACR, Difference (enavogliflozin 0.3 mg − Placebo) [3] [%] | Percent change from baseline in UACR, Mean [3] [%] | Percent change from baseline in UACR, Median [3] [%] | UACR, Mean [3] [g/kg] | UACR, Median [3] [g/kg] | Percent change from baseline in UACR, Difference (enavogliflozin 0.3 mg − dapagliflozin 10 mg) [1] [%] | Percent change from baseline in UACR, Difference (enavogliflozin 0.3 mg − dapagliflozin 10 mg) [2] [%]
1 | CCOc1ccc(Cc2cc([C@@H]3O[C@H](CO)[C@@H](O)[C@H](O)[C@H]3O)ccc2Cl)cc1 [Dapagliflozin, reference compound] | −26.01 | −39.48 | 93.37 | 45.70 | −13.09 | −39.84 | 80.60 | 43.10 | – | – | – | – | – | – | – | – | – | – | –
2 | OC[C@H]1O[C@@H](c2cc(Cc3ccc(C4CC4)cc3)c(Cl)c3c2CCO3)[C@H](O)[C@@H](O)[C@@H]1O [Enavogliflozin, (2S,3R,4R,5S,6R)-2-(7-chloro-6 (4-cyclopropylbenzyl)-2,3-dihydrobenzofuran-4-yl)-6-(hydroxymethyl)tetrahydro-2H-pyran-3,4,5-triol] | −47.35 | −48.74 | 45.64 | 27.65 | −36.03 | −55.97 | 75.40 | 46.80 | 47.35 | 46.06 | 36.03 | 20.72 | −50.89 | −46.06 | −64.48 | 70.29 | 26.05 | −21.33 | −22.94
